Legend:
Format in all cases: cell-based, Escherichia coli
ΔtolC-Pore = assay: microbe, parasite or virus in culture; conditions: technical duplicate; for Minimum inhibitory concentration (MIC), Pore ΔtolC: Table 10, with pore; for Minimum inhibitory concentration, ΔtolC-Pore: Table 14A, porinated
Procedure, shortened: (§1)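 MIC values come from background-corrected OD600 readings (pre-incubation OD subtracted) after 18 h at 37 °C and 900 rpm in MHB II. Compounds were tested in duplicate as 2-fold dilutions. The inoculum came from 18 h LB cultures adjusted to OD600 ~1.0 and diluted 1/2000, and the pore-bearing strains were vancomycin-checked beforehand.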

wild-type (WT) K-12-Pore = assay: microbe, parasite or virus in culture; conditions: technical duplicate; for Minimum inhibitory concentration (MIC), Pore K-12: Table 10, with pore; for Minimum inhibitory concentration, K-12 (WT)-Pore: Table 14A, porinated
Procedure, shortened: as §1

EKO-35 araC::acrB = assay: MIC susceptibility profiling, efflux platform; conditions: for Fold change of MICs: EKO-35 araC::acrB compared to EKO-35; for Minimum Inhibitory Concentration, EKO-35 araC::acrB: Table 13A, non-porinated, technical duplicate
Procedure, shortened: (§2)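 LB o/n 37 °C → PBS pH 7.4, OD600 ~1.0 → 1/2000 in MHB II; 2-fold cmpd series, duplicate, DMSO ctrl; 18 h 37 °C, 900 rpm; OD600 post minus pre.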

EKO-35 araC::mdtEF = assay: MIC susceptibility profiling, efflux platform; conditions: for Fold change of MICs: EKO-35 araC::mdtEF compared to EKO-35; for Minimum Inhibitory Concentration, EKO-35 araC::mdtEF: Table 13A, non-porinated, technical duplicate
Procedure, shortened: as §2

EKO-35 araC::acrD = assay: MIC susceptibility profiling, efflux platform; conditions: for Fold change of MICs: EKO-35 araC::acrD compared to EKO-35; for Minimum Inhibitory Concentration, EKO-35 araC::acrD: Table 13A, non-porinated, technical duplicate
Procedure, shortened: as §2

EKO-35 araC::emrKY = assay: MIC susceptibility profiling, efflux platform; conditions: for Fold change of MICs: EKO-35 araC::emrKY compared to EKO-35; for Minimum Inhibitory Concentration, EKO-35 araC::emrKY: Table 13B, non-porinated, technical duplicate
Procedure, shortened: as §2

EKO-35 araC::acrEF = assay: MIC susceptibility profiling, efflux platform; conditions: for Fold change of MICs: EKO-35 araC::acrEF compared to EKO-35; for Minimum Inhibitory Concentration, EKO-35 araC::acrEF: Table 13A, non-porinated, technical duplicate
Procedure, shortened: as §2

EKO-35 araC::mdtBC = assay: MIC susceptibility profiling, efflux platform; conditions: for Fold change of MICs: EKO-35 araC::mdtBC compared to EKO-35; for Minimum Inhibitory Concentration, EKO-35 araC::mdtBC: Table 13B, non-porinated, technical duplicate
Procedure, shortened: as §2

EKO-35 araC::acrBD408A = assay: MIC susceptibility profiling, efflux platform; conditions: for Fold change of MICs: EKO-35 araC::acrBD408A compared to EKO-35; for Minimum Inhibitory Concentration, EKO-35 araC::acrBD408A: Table 13B, non-porinated, technical duplicate
Procedure, shortened: as §2

EKO-35 araC::macAB = assay: MIC susceptibility profiling, efflux platform; conditions: for Fold change of MICs: EKO-35 araC::macAB compared to EKO-35; for Minimum Inhibitory Concentration, EKO-35 araC::macAB: Table 13B, non-porinated, technical duplicate
Procedure, shortened: as §2

[1] = test system: EKO-35 araC::mexCD (MexCD from P. aeruginosa); assay: MIC susceptibility profiling, efflux platform; conditions: for Fold change of MICs: EKO-35 araC::mexCD compared to EKO-35; for Minimum Inhibitory Concentration, EKO-35 araC::mexCD: Table 13B, non-porinated, technical duplicate
Procedure, shortened: as §2

EKO-35 araC::emrAB = assay: MIC susceptibility profiling, efflux platform; conditions: for Fold change of MICs: EKO-35 araC::emrAB compared to EKO-35; for Minimum Inhibitory Concentration, EKO-35 araC::emrAB: Table 13B, non-porinated, technical duplicate
Procedure, shortened: as §2

EKO-35 araC::mdtEF Pore = assay: MIC susceptibility profiling, porinated efflux platform; conditions: for Fold changes of MICs: EKO-35 araC::mdtEF Pore compared to EKO-35-Pore; for Minimum inhibitory concentration, EKO-35 araC::mdtEF Pore: Table 14A, porinated, technical duplicate
Procedure, shortened: as §1

EKO-35 araC::macAB Pore = assay: as above; conditions: for Fold changes of MICs: EKO-35 araC::macAB Pore compared to EKO-35-Pore; for Minimum inhibitory concentration: EKO-35 araC::macAB Pore, technical duplicate
Procedure, shortened: as §1

EKO-35 araC::emrKY Pore = assay: as above; conditions: for Fold changes of MICs: EKO-35 araC::emrKY Pore compared to EKO-35-Pore; for Minimum inhibitory concentration: EKO-35 araC::emrKY Pore, technical duplicate
Procedure, shortened: as §1

EKO-35 araC::acrEF Pore = assay: as above; conditions: for Minimum inhibitory concentration, EKO-35 araC::acrEF Pore: Table 14A, porinated, technical duplicate
Procedure, shortened: as §1

[2] = test system: wild-type E. coli K-12 str. BW25113; assay: microbe, parasite or virus in culture; conditions: technical duplicate; for Minimum inhibitory concentration (MIC), K-12: Table 10, without pore; for Minimum Inhibitory Concentration, K-12: Table 13A, non-porinated
Procedure, shortened: as §2

E. coli EKO-35 = assay: microbe, parasite or virus in culture; conditions: for Fold change of MICs: EKO-35 compared to EKO-35 (reference); for Minimum inhibitory concentration (MIC), EKO-35: Table 10, without pore; for Minimum inhibitory concentration (MIC), EKO-35 / Minimum Inhibitory Concentration, EKO-35: technical duplicate; for Minimum Inhibitory Concentration, EKO-35: Table 13A, non-porinated
Procedure, shortened: as §2

E. coli ΔtolC = assay: microbe, parasite or virus in culture; conditions: technical duplicate; for Minimum inhibitory concentration (MIC), ΔtolC: Table 10, without pore; for Minimum Inhibitory Concentration, ΔtolC: Table 13A, non-porinated
Procedure, shortened: as §2

O=C(Nc1ccc(C(F)(F)F)cc1)Nc1ccc(C(F)(F)F)cc1 [compound 7]
320 µg/mL: Minimum inhibitory concentration (MIC), Pore K-12 (wild-type (WT) K-12-Pore) | Minimum inhibitory concentration, K-12 (WT)-Pore (wild-type (WT) K-12-Pore) | Minimum Inhibitory Concentration, EKO-35 araC::acrB (EKO-35 araC::acrB) | Minimum Inhibitory Concentration, EKO-35 araC::mdtEF (EKO-35 araC::mdtEF) | Minimum Inhibitory Concentration, EKO-35 araC::acrD (EKO-35 araC::acrD) | Minimum Inhibitory Concentration, EKO-35 araC::emrKY (EKO-35 araC::emrKY) | Minimum Inhibitory Concentration, EKO-35 araC::acrEF (EKO-35 araC::acrEF) | Minimum Inhibitory Concentration, EKO-35 araC::mdtBC (EKO-35 araC::mdtBC) | Minimum Inhibitory Concentration, EKO-35 araC::acrBD408A (EKO-35 araC::acrBD408A) | Minimum Inhibitory Concentration, EKO-35 araC::macAB (EKO-35 araC::macAB) | Minimum Inhibitory Concentration, EKO-35 araC::mexCD [1] | Minimum Inhibitory Concentration, EKO-35 araC::emrAB (EKO-35 araC::emrAB) | Minimum inhibitory concentration, EKO-35 araC::mdtEF Pore (EKO-35 araC::mdtEF Pore) | Minimum inhibitory concentration (EKO-35 araC::macAB Pore) | Minimum inhibitory concentration (EKO-35 araC::emrKY Pore) | Minimum inhibitory concentration, EKO-35 araC::acrEF Pore (EKO-35 araC::acrEF Pore) | Minimum inhibitory concentration (MIC), K-12 [2] | Minimum Inhibitory Concentration, K-12 [2] | Minimum inhibitory concentration (MIC), EKO-35 (E. coli EKO-35) | Minimum Inhibitory Concentration, EKO-35 (E. coli EKO-35)
0.313 µg/mL: Minimum inhibitory concentration (MIC), Pore ΔtolC (ΔtolC-Pore) | Minimum inhibitory concentration, ΔtolC-Pore (ΔtolC-Pore) | Minimum inhibitory concentration (MIC), ΔtolC (E. coli ΔtolC) | Minimum Inhibitory Concentration, ΔtolC (E. coli ΔtolC)
1 fold: Fold change of MICs (EKO-35 araC::acrB) | Fold change of MICs (EKO-35 araC::mdtEF) | Fold change of MICs (EKO-35 araC::acrD) | Fold change of MICs (EKO-35 araC::emrKY) | Fold change of MICs (EKO-35 araC::acrEF) | Fold change of MICs (EKO-35 araC::mdtBC) | Fold change of MICs (EKO-35 araC::acrBD408A) | Fold change of MICs (EKO-35 araC::macAB) | Fold change of MICs [1] | Fold change of MICs (EKO-35 araC::emrAB) | Fold changes of MICs (EKO-35 araC::mdtEF Pore) | Fold changes of MICs (EKO-35 araC::macAB Pore) | Fold changes of MICs (EKO-35 araC::emrKY Pore) | Fold changes of MICs (EKO-35 araC::acrEF Pore; EKO-35 araC::acrEF Pore compared to EKO-35-Pore) | Fold change of MICs (E. coli EKO-35)

deoxycholate
conferred resistance: efflux pump-mediated resistance vs EKO-35 (EKO-35 araC::mdtBC; MdtBC)
confirmed: efflux pump-mediated resistance vs EKO-35 (EKO-35 araC::acrD; AcrD)
187.5 µg/mL: Minimum Inhibitory Concentration, EKO-35 araC::macAB (EKO-35 araC::macAB) | Minimum inhibitory concentration (EKO-35 araC::macAB Pore) | Minimum inhibitory concentration (EKO-35 araC::emrKY Pore) | Minimum inhibitory concentration (MIC), ΔtolC (E. coli ΔtolC) | Minimum Inhibitory Concentration, ΔtolC (E. coli ΔtolC)
4 fold: Fold change of MICs (EKO-35 araC::acrB) | Fold change of MICs (EKO-35 araC::mdtEF) | Fold change of MICs (EKO-35 araC::acrD) | Fold change of MICs (EKO-35 araC::acrEF) | Fold change of MICs (EKO-35 araC::mdtBC) | Fold change of MICs [1] | Fold change of MICs (EKO-35 araC::emrAB)
1500 µg/mL: Minimum inhibitory concentration (MIC), Pore K-12 (wild-type (WT) K-12-Pore) | Minimum inhibitory concentration, K-12 (WT)-Pore (wild-type (WT) K-12-Pore) | Minimum Inhibitory Concentration, EKO-35 araC::acrB (EKO-35 araC::acrB) | Minimum Inhibitory Concentration, EKO-35 araC::mdtEF (EKO-35 araC::mdtEF) | Minimum Inhibitory Concentration, EKO-35 araC::acrD (EKO-35 araC::acrD) | Minimum Inhibitory Concentration, EKO-35 araC::acrEF (EKO-35 araC::acrEF) | Minimum Inhibitory Concentration, EKO-35 araC::mdtBC (EKO-35 araC::mdtBC) | Minimum Inhibitory Concentration, EKO-35 araC::mexCD [1] | Minimum Inhibitory Concentration, EKO-35 araC::emrAB (EKO-35 araC::emrAB) | Minimum inhibitory concentration, EKO-35 araC::mdtEF Pore (EKO-35 araC::mdtEF Pore) | Minimum inhibitory concentration, EKO-35 araC::acrEF Pore (EKO-35 araC::acrEF Pore) | Minimum inhibitory concentration (MIC), K-12 [2] | Minimum Inhibitory Concentration, K-12 [2]
could not substantiate: efflux pump-mediated resistance vs EKO-35 (EKO-35 araC::emrKY; EmrKY)
8 fold: Fold changes of MICs (EKO-35 araC::mdtEF Pore)
46.875 µg/mL: Minimum inhibitory concentration (MIC), Pore ΔtolC (ΔtolC-Pore) | Minimum inhibitory concentration, ΔtolC-Pore (ΔtolC-Pore)
375 µg/mL: Minimum Inhibitory Concentration, EKO-35 araC::emrKY (EKO-35 araC::emrKY) | Minimum Inhibitory Concentration, EKO-35 araC::acrBD408A (EKO-35 araC::acrBD408A) | Minimum inhibitory concentration (MIC), EKO-35 (E. coli EKO-35) | Minimum Inhibitory Concentration, EKO-35 (E. coli EKO-35)
1 fold: Fold change of MICs (EKO-35 araC::emrKY) | Fold change of MICs (EKO-35 araC::acrBD408A) | Fold change of MICs (EKO-35 araC::macAB) | Fold changes of MICs (EKO-35 araC::macAB Pore) | Fold changes of MICs (EKO-35 araC::emrKY Pore) | Fold change of MICs (E. coli EKO-35)

Reference: US20230407243A1, “GENETIC PLATFORM TO INVESTIGATE THE FUNCTIONS OF BACTERIAL DRUG EFFLUX PUMPS” (priority 2022, published 2023)
